These results are taken from US20090130691A1, “SCREENING PROTEINASE MODULATORS USING A CHIMERIC PROTEIN AND SKI-I PROPROTEIN CONVERTASE SUBSTRATES AND INHIBITORS” (Institut de Recherches Cliniques de Montreal, priority 2005, published 2009).

What is called IC50 is the concentration that gives 50% inhibition. Read a low IC50 as greater potency.

Assay [1] has as its target T1, SKI-1 (Cricetulus griseus, UniProt Q9Z2A8).
T1 construct: endogenous in cells; host or cells: CHOK1
T1 sequence (Q9Z2A8 187-1052): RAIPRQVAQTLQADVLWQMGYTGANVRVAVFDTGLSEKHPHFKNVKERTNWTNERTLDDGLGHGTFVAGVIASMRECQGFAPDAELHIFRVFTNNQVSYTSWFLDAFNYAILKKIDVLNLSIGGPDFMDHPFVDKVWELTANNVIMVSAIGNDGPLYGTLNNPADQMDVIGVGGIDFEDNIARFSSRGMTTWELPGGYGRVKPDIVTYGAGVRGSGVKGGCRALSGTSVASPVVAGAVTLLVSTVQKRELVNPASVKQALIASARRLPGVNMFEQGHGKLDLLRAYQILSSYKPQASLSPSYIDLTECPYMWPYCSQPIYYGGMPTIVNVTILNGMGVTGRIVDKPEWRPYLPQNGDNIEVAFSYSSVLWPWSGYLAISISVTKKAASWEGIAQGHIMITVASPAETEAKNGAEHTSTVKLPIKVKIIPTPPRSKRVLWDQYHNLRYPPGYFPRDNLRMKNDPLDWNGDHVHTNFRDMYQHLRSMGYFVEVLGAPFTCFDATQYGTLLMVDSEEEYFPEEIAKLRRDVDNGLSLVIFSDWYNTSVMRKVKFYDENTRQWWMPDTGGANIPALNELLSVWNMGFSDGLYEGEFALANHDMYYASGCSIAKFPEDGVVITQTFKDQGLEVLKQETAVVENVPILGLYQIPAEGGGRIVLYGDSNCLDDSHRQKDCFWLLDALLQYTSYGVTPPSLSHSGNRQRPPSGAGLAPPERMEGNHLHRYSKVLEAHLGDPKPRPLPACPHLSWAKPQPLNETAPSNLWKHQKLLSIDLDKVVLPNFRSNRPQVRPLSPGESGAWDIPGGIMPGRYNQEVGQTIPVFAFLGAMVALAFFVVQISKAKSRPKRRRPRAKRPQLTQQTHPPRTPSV
Briefly: cell-based.

For assay [2], the target named is T2, SKI-1 (Homo sapiens, UniProt Q14703).
T2 construct: For SKI-1, several cell lines expressing SKI-1 could be used; endogenous in cells; host or cells: HuH7
T2 sequence (Q14703 187-1052): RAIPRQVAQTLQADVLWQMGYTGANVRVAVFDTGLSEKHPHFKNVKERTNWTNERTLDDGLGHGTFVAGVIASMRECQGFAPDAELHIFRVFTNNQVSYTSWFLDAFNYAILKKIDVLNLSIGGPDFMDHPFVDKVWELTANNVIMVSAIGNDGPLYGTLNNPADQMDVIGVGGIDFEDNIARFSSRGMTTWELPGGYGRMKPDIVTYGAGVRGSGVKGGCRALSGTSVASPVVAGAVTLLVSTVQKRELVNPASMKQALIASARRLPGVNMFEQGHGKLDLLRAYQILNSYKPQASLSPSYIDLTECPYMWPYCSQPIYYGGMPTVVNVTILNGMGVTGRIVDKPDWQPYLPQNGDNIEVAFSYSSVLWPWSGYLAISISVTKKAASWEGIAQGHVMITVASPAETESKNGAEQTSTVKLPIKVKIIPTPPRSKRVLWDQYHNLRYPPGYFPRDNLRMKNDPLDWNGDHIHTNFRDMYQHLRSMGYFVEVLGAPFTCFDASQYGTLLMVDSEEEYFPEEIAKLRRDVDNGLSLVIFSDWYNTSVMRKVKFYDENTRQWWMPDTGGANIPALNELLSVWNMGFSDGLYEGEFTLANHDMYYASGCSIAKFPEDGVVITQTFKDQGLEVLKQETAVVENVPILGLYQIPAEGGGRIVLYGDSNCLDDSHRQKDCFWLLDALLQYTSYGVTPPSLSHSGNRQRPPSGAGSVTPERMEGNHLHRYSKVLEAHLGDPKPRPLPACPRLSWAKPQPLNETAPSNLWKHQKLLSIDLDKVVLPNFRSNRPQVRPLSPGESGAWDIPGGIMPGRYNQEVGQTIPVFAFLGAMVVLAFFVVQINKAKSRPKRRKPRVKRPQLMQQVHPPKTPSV
Format: cell-based.

The target in assay [3] is T1, SKI-1. Briefly: cell-based. Also on record: species or system hamster.
Assay [4] deals with endogenous Furin-like PCs. Briefly: Ex vivo processing of proPDGF-A in HEK293 cells stably expressing PDGF-A-V5. Format: cell-based, human.
Assay [5] relates to Furin-like PCs. In words: Western blot of cell-surface biotinylated proteins of PCfur-1.6 cells immunoprecipitated with HA antibody. Format: cell-based, human. The settings on record: PCfur-1.6 cells infected with recombinant adenovirus, 1× and 2×. An excerpt:
Similar confirmation was obtained using Western blots of cell-surface biotinylated proteins, immunoprecipitated with the HA-antibody and detected on Western using horseraddish peroxidase coupled streptavidin (WB streptavidin-HRP). The Western blot protocol used was a standard one using a monoclonal commercial anti-HA antibody coupled to horseraddish peroxidase (Sigma; used as proposed by the manufacturer) at a final dilution of 1:5000. […] This confirms that the HA reappears specifically in the presence of a PCs inhibitor. […] Small molecules were also identified with the assay (see Example 7).
A general note: Immunoblotting shows a protein as a band on a membrane.

In assay [6] the test system is Furin-like PCs. In words: CELISA detection of HA tag on HeLa cells expressing Furin-like PC bait chimera. It counts as cell-based, human. The settings on record: for effect of serpin expression on presence of the HA tag at the cell surface: PCfur-1.6 cells transfected or adenovirus infected. On the procedure: A CELISA test was then used to confirm the results obtained by the FACS analysis (FIG. 7A). Pools of cells transfected with the chimera were rinsed twice with PBS. Then, at room temperature, the following steps were performed. Cells were fixed in PBS and 4% formalin 10 min. They were then rinsed twice with PBS. The anti-HA/peroxidase antibody diluted 1/8000 in PBS and 1% powdered milk (filtered) was then added. The cells were incubated 30 minutes on Labquake™. Again, the cells were rinsed twice with PBS. The substrate (2,2′ azino-Bis (3-ethylobenzathiazoline-6-sulfonic acid); Sigma) was added to the cells and the mixture was incubated 15 minutes. The OD was read at 405 nm and 470 nm for turbidity, and the subtraction of the reading at both wavelengths (405-470) gave normalized product absorbance. The CELISA assay was performed in the presence of different concentrations of dec-RVKR-cmk (SEQ ID NO:35). The signal/noise ratio obtained in the presence of 60 μM of dec-RVKR-CMK (SEQ ID NO: 35) was above 15. The CELISA (FIG. 7B) confirmed that the presence of the inhibitor increases the detection of HA at the surface of the cells.
Some PCfur-1.6 cells were transfected with an expression vector containing a cDNA coding for either α1-PDX or the α1-AT using lipofectamine as described by the manufacturer (Invitrogen) (less than 20% efficacy), or infected using recombinant adenovirus (Ad) as described (Benjannet et al., 2004) (near 100% efficacy).

The target of assay [7] is endogenous Furin-like PCs. Briefly: cell-based or functional assay.
Another assay deals with NARC-1/PCSK9. In words: Western blot of cells expressing NARC-1/PCSK9 bait (SN11) chimera. Format: cell-based, human. The settings on record: 50 μM, 6 h. The source says: A specific CELISA to the NARC-1/PCSK9 was designed using the approach described in Example 1 above. Chimeras were constructed using sequences known to be cleavable by NARC-1/PCSK9 (SSVFAQ-SIPWN (SEQ ID NO: 31)), or EEDSSVFAQ-SIPWN (SEQ ID NO: 55) combined to full length ACE2-CT segment, and then used to transfect HuH7. Chimeras are also similarly constructed using KHQKLL-SIDLD (SEQ ID NO: 32)). HuH7 was selected amongst 20 cell lines as being one in which the NARC-1/PCSK9 expression level the highest.
Cells expressing chimera containing the NARC/PCSK9 bait SSVFAQ-SIPWN (SEQ ID NO: 31) (SN11) were analyzed by Western blot. Cells were treated or not for 6 h with 50 μM of dec-RVKR-cmk (SEQ ID NO: 35) to inhibit endogenous Furin-like enzymes and thus indirectly activate NARC/PCSK9. Cells express an approximately equal amounts of ER- (endo H sensitive, not shown) and Golgi-associated (endo H resistant, not shown) SN11 chimera as observed using an HA mAb. […] The Western blot protocol used was a standard one using a monoclonal commercial anti-HA antibody coupled to horseradish peroxidase (Sigma; used as proposed by the manufacturer) at a final dilution of 1:5000.

The test system of assay [8] is Furin-like PCs. In words: FACS detection of HA tag on HeLa cells expressing Furin-like PC bait chimera. Format: cell-based, human. As for the experimental part:
HeLa cells were submitted to two rounds of fluorescence activated cell sorting (FACS) using Alexa488™ as fluorophore with a MoFlo™ cell sorter (Cytomation, Fort Collins, Colo., USA) to obtain pools of cells expressing the Fc (Fc positive) but negative for the HA tag (HA negative) (FIG. 7A, darker dots). The presence of Fc tags was the sign that cleavage by Furin-like PCs at the bait sequence KRIRLRR←SPD (SEQ ID NO: 29) had released the HA tag.
This isolated pool of cells was incubated for 6 h with 60 μM of dec-RVKR-cmk (SEQ ID NO: 35), a potent PC-inhibitor, and submitted to FACS analysis.
The FACS sorted cells pool was then used to isolate individual clones: 10 clones were isolated of which one (clone PCfur-1.6) expresses a large amount of Fc (i.e. […] chimera) at the cell surface.

Assay [9] concerns the target T3, SKI-1 (endogenous enzyme of CHOK1 cells) (UniProt Q9Z2A8).
T3 sequence: T1 sequence (Q9Z2A8 187-1052)
Briefly: cell-based or functional assay.

Like-named read-outs stand apart in the source and are kept apart here. Residues, ends and D or L forms follow the SMILES beside them. *: point of attachment. Decanoyl = CCCCCCCCCC(=O)*; CH2Cl = ClC*

In the case of `CCCCCCCCCC(=O)N[C@@H](Cc1ccc(O)cc1)C(=O)N[C@H](C(=O)N[C@@H](CO)C(=O)N[C@@H](CCCNC(=N)N)C(=O)N[C@@H](CCCNC(=N)N)C(=O)N[C@@H](CC(C)C)C(=O)N[C@@H](CC(C)C)C(=O)CCl)[C@@H](C)CC` [dec-YISRRLL-cmk] (Decanoyl-YISRRLL-CH2Cl), the IC50 against SKI-1 [1] is at most 1 µM; at SKI-1 [3], around 7 µM. Further, the “re-appearance of the HA tag at the cell surface (FACS)” value on SKI-1 [2] was “A reversion of the level of the chimeric protein to that of the uncleaved form”. The “inhibition of ex vivo processing of proPDGF-A (in words)” value in assay [4] was “not an effective inhibitor”.

In the case of “α1-AT: serpin α1-antitrypsin, which does not inhibit PCs; control”, the “HA-tagged chimera at the cell surface by Western blot” value with Furin-like PCs [5] is given as “no chimeric HA-tagged chimera could be detected”. In the assay with Furin-like PCs [6], the “effect of serpin expression on presence of the HA tag at the cell surface” value is reported as “had no effect”.

With dec-RRLL-cmk (peptide), the inhibition of proPDGF-A processing in HEK293 cells (Western blot of media) in assay [7] was above 100 µM.

For the molecule “α1-PDX: serpin variant, a known PCs inhibitor, expressed from cDNA or adenovirus”, the “HA-tagged chimera at the cell surface by Western blot” value in the assay with Furin-like PCs [5] is listed as “the presence of the HA tag at the cell surface of these cells could be observed”. Further, the “increase in absorbance in CELISA, Ad:PDX compared to Ad:AT” value in the assay with Furin-like PCs [6] (PCfur-1.6 cells infected with recombinant adenovirus) was around 7 fold. Besides, in the assay on Furin-like PCs [6], the “effect of serpin expression on presence of the HA tag at the cell surface” value is listed as “increased the presence of the HA tag at the cell surface”.

As to dec-RVKR-cmk (Decanoyl-RVKR-CH2Cl), the “level of Golgi-associated HA tag versus ER-associated (indirect activation of NARC-1/PCSK9)” value with NARC-1/PCSK9 was “a substantial decrease in the level of the Golgi-associated HA tag versus the ER-one”. Also, the “signal/noise ratio in CELISA” value with Furin-like PCs [6] (HeLa cell pool, 60 μM inhibitor) is “above 15”. The “conversion of cleaved chimera into uncleaved form exhibiting the HA-tag at the cell surface (FACS)” value in the assay on Furin-like PCs [8] (clone PCfur-1.6, as little as 30 μM) was “completely converted into an uncleaved form”. In the assay with Furin-like PCs [8] (stable HeLa cell pool, 60 μM, 6 h), the “re-appearance of the HA tag at the cell surface (FACS)” value is “very significant reversion of the level of the chimeric protein to that of the uncleaved form”. For the same molecule, in assay [4] (HEK293 cells, overnight, Western blot), the “concentration that completely inhibits proPDGF-A processing” value was around 3 µM.

In turn, `CCCCCCCCCC(=O)N[C@@H](CCCNC(=N)N)C(=O)N[C@@H](CCCNC(=N)N)C(=O)N[C@@H](CC(C)C)C(=O)N[C@@H](CC(C)C)C(=O)CCl` [dec-RRLL-cmk, reference compound] (Decanoyl-RRLL-CH2Cl) yielded an IC50 on SKI-1 [1] of at most 1 µM.

`CCCCCCCCCC(=O)N[C@H](C(=O)N[C@@H](CO)C(=O)N[C@@H](CCCNC(=N)N)C(=O)N[C@@H](CCCNC(=N)N)C(=O)N[C@@H](CC(C)C)C(=O)N[C@@H](CC(C)C)C(=O)CCl)[C@@H](C)CC` [dec-ISRRLL-cmk] (Decanoyl-ISRRLL-CH2Cl) yielded an IC50 against SKI-1 [3] of around 20 µM.

In assay [9], dec-ISRRLL-cmk (peptide) displayed a 50% inhibition of the processing of endogenous proSREBP-2 in CHOK1 cells (Western blot) of 20 µM.
